As usually defined, the logP is the decadic logarithm of the partition coefficient of the neutral form, usually between octanol and water. The low end stands for a more hydrophilic compound, the high end for a more lipophilic compound.

Molecules are shown by their SMILES.

The test system of one data set is Phakopsora pachyrhizi. Description: In vivo preventive test on Phakopsora pachyrhizi (soybean rust). The following applies: Table C1, dose 10 ppm. As to the method: Example C: In Vivo Preventive Test on Phakopsora pachyrhizi (Soybean Rust)
Solvent: 24.5 parts by weight of acetone • 24.5 parts by weight of N,N-dimethylacetamide
Emulsifier: 1 part by weight of alkylaryl polyglycol ether
To produce a suitable preparation of active compound, 1 part by weight of active compound is mixed with the stated amounts of solvent and emulsifier, and the concentrate is diluted with water to the desired concentration.
To test for preventive activity, young plants are sprayed with the preparation of active compound at the stated rate of application. After the spray coating has dried on, the plants are inoculated with an aqueous spore suspension of the causal agent of soybean rust (Phakopsora pachyrhizi) and stay for 24 h without light in an incubation cabinet at approximately 24° C. and a relative atmospheric humidity of 95%.
The plants remain in the incubation cabinet at approximately 24° C. and a relative atmospheric humidity of approximately 80% and a day/night interval of 12 h. The test is evaluated 7 days after the inoculation. 0% means an efficacy which corresponds to that of the untreated control, while an efficacy of 100% means that no disease is observed.
`Cn1nc(C(F)F)c(C(=O)N(Cc2ccccc2C2CC2)C2CC2)c1F` [47 from WO-2010/130767, N-cyclopropyl-N-(2-cyclopropylbenzyl)-3-(difluoromethyl)-5-fluoro-1-methyl-1H-pyrazole-4-carboxamide, reference compound] displayed an Efficacy of 0%.
Same read-out and setting: under `CCCC1(c2ccc(C)cc2CN(C(=O)c2c(C)nn(C)c2F)C2CC2)CC1` [I.113] stands 85%.
As to `Cn1nc(C(F)F)c(C(=O)N(Cc2cc(F)ccc2C2CC2)C2CC2)c1F` [123 from WO-2010/130767, N-cyclopropyl-N-(2-cyclopropyl-5-fluorobenzyl)-3-(difluoromethyl)-5-fluoro-1-methyl-1H-pyrazole-4-carboxamide, reference compound], the Efficacy is reported as 0/23.
As to `Cc1ccc(C2(C)CC2)c(CN(C(=O)c2c(C)nn(C)c2F)C2CC2)c1` [I.040], the Efficacy is recorded as 99%.

The data set is the same for the next values; noted with them: Table C2, dose 10 ppm.
As for `CCC1(c2ccc(Cl)cc2CN(C(=O)c2c(C)nn(C)c2F)C2CC2)CC1` [I.087], the Efficacy came out at 79%.

The same data set, now with this note: dose of ppm of active ingredient (number not given); comparison with WO-2010/130767, text.
As to `Cn1nc(C(F)F)c(C(=O)N(Cc2cc(Cl)ccc2C2CC2)C2CC2)c1F` [41 from WO-2010/130767, N-(5-chloro-2-cyclopropylbenzyl)-N-cyclopropyl-3-(difluoromethyl)-5-fluoro-1-methyl-1H-pyrazole-4-carboxamide, reference compound], the protection entry was “no protection”.
In the case of `CCC1(c2ccc(Cl)cc2CN(C(=O)c2c(C)nn(C)c2F)C2CC2)CC1` [I.087], the protection result is recorded as “at least 70%”.

Another data set deals with Uromyces appendiculatus. Description: In vivo preventive test on Uromyces appendiculatus (bean rust). The following applies: Table B1, dose 10 ppm. As to the method: Example B: In Vivo Preventive Test on Uromyces appendiculatus (Bean Rust)
Solvent: 5% by volume of Dimethyl sulfoxide • 10% by volume of Acetone
Emulsifier: […] of Tween® 80 per mg of active ingredient
(§1) The active ingredients are made soluble and homogenized in a mixture of Dimethyl sulfoxide/Acetone/Tween® 80 and then diluted in water to the desired concentration.
The young plants of bean are treated by spraying the active ingredient prepared as described above.
Control plants are treated only with an aqueous solution of Acetone/Dimethyl sulfoxide/Tween® 80.
After 24 hours, the plants are contaminated by spraying the leaves with an aqueous suspension of Uromyces appendiculatus spores. The contaminated bean plants are incubated for 24 hours at 20° C. and at 100% relative humidity and then for 10 days at 20° C. and at 70-80% relative humidity.
(§2) The test is evaluated 11 days after the inoculation. 0% means an efficacy which corresponds to that of the control plants while an efficacy of 100% means that no disease is observed.
For the compound `Cn1cc(C(=O)N(Cc2cc(Cl)ccc2C2(C)CC2)C2CC2)c(C(F)F)n1` [I.029, N-[5-chloro-2-(1-methylcyclopropyl)benzyl]-N-cyclopropyl-3-(difluoromethyl)-1-methyl-1H-pyrazole-4-carboxamide], the Efficacy was determined as 98%.
Still for that read-out and setting: under `Cc1nn(C)c(F)c1C(=O)N(Cc1ccccc1C1CCCCC1)C1CC1` [399 from WO-2007/087906, N-(2-cyclohexylbenzyl)-N-cyclopropyl-5-fluoro-1,3-dimethyl-1H-pyrazole-4-carboxamide, reference compound] stands 0%; under `Cc1ccc(C2(C)CC2)c(CN(C(=O)c2cn(C)nc2C(F)F)C2CC2)c1` [I.033], 100%.

Staying with this data set, now noted: dose of ppm of active ingredient (number not given); comparison with WO-2007/087906, text.
As for `Cc1nn(C)c(F)c1C(=O)N(Cc1ccccc1C1CCCCC1)C1CC1` [399 from WO-2007/087906, N-(2-cyclohexylbenzyl)-N-cyclopropyl-5-fluoro-1,3-dimethyl-1H-pyrazole-4-carboxamide, reference compound], the protection entry is reported as “no protection”.

Tested on in the next data set: not listed separately
Nature of the data set: log P by HPLC on a reversed-phase column (C 18), EEC Directive 79/831 Annex V.A8. The format is physicochemical. The following applies: HPLC reversed-phase C 18, 40° C., 0.1% aqueous formic acid and acetonitrile, gradient 10% to 90% acetonitrile. As to the method: In table 1, the log P values were determined in accordance with EEC Directive 79/831 Annex V.A8 by HPLC (High Performance Liquid Chromatography) on a reversed-phase column (C 18), using the method described below: Temperature: 40° C.; Mobile phases: 0.1% aqueous formic acid and acetonitrile; linear gradient from 10% acetonitrile to 90% acetonitrile. Calibration was carried out using unbranched alkan-2-ones (comprising 3 to 16 carbon atoms) with known log P values (determination of the log P values by the retention times using linear interpolation between two successive alkanones). lambda-max-values were determined using UV-spectra from 200 nm to 400 nm and the peak values of the chromatographic signals.
`Cc1nn(C)cc1C(=O)N(Cc1cc(Cl)c(Cl)cc1C1(C)CC1)C1CC1` [Example 1.160] returned a logP of 3.81.
In turn, `COCC1(c2ccc(C)cc2CN(C(=O)c2c(C)nn(C)c2F)C2CC2)CC1` [Example 1.156] displayed a logP of 3.02.
Consider `Cc1nn(C)c(F)c1C(=O)N(Cc1cc(Cl)c(Cl)cc1C1(C)CC1)C1CC1` [Example 1.162], for which the logP is given as 4.35.
`Cn1cc(C(=O)N(Cc2cc(F)ccc2C2(C)CC2(Cl)Cl)C2CC2)c(C(F)F)n1` (centres unmarked) [Example 1.153] gave a log partition coefficient (logP) of 3.68.

Staying with this data set, now noted: HPLC, reversed-phase column (C 18), 40° C.; 0.1% aqueous formic acid and acetonitrile, linear gradient 10% to 90% acetonitrile.
For `CCCC1(c2ccc(C)cc2CN(C(=O)c2c(C)nn(C)c2F)C2CC2)CC1` [I.113], the logP was 4.61.
For `Cc1ccc(C2(C)CC2)c(CN(C(=O)c2cn(C)nc2C(F)F)C2CC2)c1` [I.033], the logP came to 3.74.
On the same count and under the same terms, under `Cc1ccc(C2(C(C)C)CC2)c(CN(C(=O)c2cc(C)oc2C(F)F)C2CC2)c1` [Example 1.120] stands 5.54; under `Cc1ccc(C2(C)CC2)c(CN(C(=S)c2sccc2I)C2CC2)c1` [Example 1.054], 5.72.
The same measure, in the same setting: next, `Cc1ccc(C2(C(C)C)CC2)c(CN(C(=O)c2nn(C)cc2C(F)F)C2CC2)c1` [Example 1.117]: 4.90; `CCC1(c2ccc(Cl)cc2CN(C(=O)c2cc(C)oc2C)C2CC2)CC1` [Example 1.088]: 5.31; `Cc1nn(C)c(F)c1C(=O)N(Cc1ccc2c(c1C1(C)CC1)OCO2)C1CC1` [Example 1.056]: 3.06.
The compound `Cn1nc(C(=O)N(Cc2ccc(-c3ccccc3)cc2C2(C)CC2)C2CC2)c(C(F)F)n1` [Example 1.022] displayed a lipophilicity (logP) of 5.00.
Same read-out and setting: next, `Cn1cc(C(=O)N(Cc2ccccc2C2(C(F)F)CC2)C2CC2)c(C(F)F)n1` [Example 1.132]: 3.00; `CCCC1(c2cc(Cl)ccc2CN(C(=O)c2nn(C)nc2C(F)F)C2CC2)CC1` [Example 1.112]: 5.31; `Cn1cc(C(=O)N(Cc2cc(Cl)ccc2C2(C(F)F)CC2)C2CC2)c(C(F)F)n1` [Example 1.135]: 3.37.
For `Cn1cc(C(=O)N(Cc2cc(F)ccc2C2(C)CC2)C2CC2)c(C(F)F)n1` [Example 1.032], the log partition coefficient (logP) stood at 3.51.
Compound `Cc1ccc(C2(C)CC2)c(CN(C(=O)c2sccc2I)C2CC2)c1` [Example 1.034] gave a logP of 5.14.
The same measure, in the same setting: next, `CCC1(c2ccc(C)cc2CN(C(=O)c2c(C)nn(C)c2Cl)C2CC2)CC1` [Example 1.096]: 4.36.
On the same count and under the same terms, next, `C#CC1(c2ccc(C)cc2CN(C(=O)c2c(C)nn(C)c2F)C2CC2)CC1` [Example 1.065]: 3.21; `Cn1cc(C(=O)N(Cc2cc(F)ccc2C2(C(F)F)CC2)C2CC2)c(C(F)F)n1` [Example 1.137]: 3.09.
`Cc1ccc(C2(C)CC2)c(CN(C(=O)c2nn(C)nc2C(F)F)C2CC2)c1` [Example 1.050] came in with a logP of 4.37.
Still for that read-out and setting: under `Cn1cc(C(=S)N(Cc2cc(Cl)ccc2C2(C)CC2)C2CC2)c(C(F)F)n1` [Example 1.031] stands 4.37; under `Cc1cc(C(=O)N(Cc2c(C3(C)CC3)ccc(C)c2F)C2CC2)c(C)o1` [Example 1.055], 5.08.
Still for that read-out and setting: under `Cc1ccc(C2(C(C)C)CC2)c(CN(C(=O)c2nn(C)nc2C(F)F)C2CC2)c1` [Example 1.121] stands 5.08.
As for `Cn1cc(C(=O)N(Cc2c(Br)cccc2C2(C(F)F)CC2)C2CC2)c(C(F)F)n1` [Example 1.142], the logP was determined as 3.39.
The same measure, in the same setting: next, `Cc1ccc(CN(C(=O)c2c(C)nn(C)c2F)C2CC2)c(C2(C)CC2)c1` [Example 1.016]: 3.71; `CCc1cc(C(=O)N(Cc2cc(C)ccc2C2(C)CC2)C2CC2)c(C)o1` [Example 1.051]: 5.25; `CCC1(c2cc(Cl)ccc2CN(C(=O)c2cc(C)oc2C(F)F)C2CC2)CC1` [Example 1.072]: 5.28.
Same read-out and setting: under `Cc1nn(C)c(F)c1C(=S)N(Cc1ccc(F)cc1C1(C)CC1)C1CC1` [Example 1.015] stands 4.18.
`CCC1(c2ccc(C)cc2CN(C(=O)c2cc(C)oc2C(F)F)C2CC2)CC1` [Example 1.095] gave a logP of 5.22.

The next data set concerns Puccinia recondita. Description: In vivo preventive test on Puccinia recondita (brown rust on wheat). The following applies: Table A1, dose 100 ppm; examples from WO-2012/052490 formulated in DMF with 2% of alkylarylpolyglycolether. As for the experimental part:
Example A: In Vivo Preventive Test on Puccinia recondita (Brown Rust on Wheat) […]
Emulsifier: 1 μL of Tween® 80 per mg of active ingredient
as §1
The young plants of wheat are treated by spraying the active ingredient prepared as described above. Control plants are treated only with an aqueous solution of Acetone/Dimethyl sulfoxide/Tween® 80. After 24 hours, the plants are contaminated by spraying the leaves with an aqueous suspension of Puccinia recondita spores. The contaminated wheat plants are incubated for 24 hours at 20° C. and at 100% relative humidity and then for 10 days at 20° C. and at 70-80% relative humidity.
as §2
Turning to `CCC1(c2ccccc2CN(C(=O)c2cn(C)nc2C(F)F)C2CC2)CC1` [I.067], the Efficacy is on record as 98%.
As to `Cn1nc(C(F)F)c(C(=O)NCc2ccccc2C2CC2)c1Cl` [66 from WO-2012/052490, 5-chloro-N-(2-cyclo-propylbenzyl)-3-(difluoromethyl)-1-methyl-1H-pyrazole-4-carboxamide], the Efficacy amounted to 0%.
Same read-out and setting: under `Cn1nc(C(F)F)c(C(=O)NCc2ccccc2C2CC2)c1F` [65 from WO-2012/052490, N-(2-cyclopropylbenzyl)-3-(difluoromethyl)-5-fluoro-1-methyl-1H-pyrazole-4-carboxamide] stands 0%.

The same data set, now with this note: dose of 100 ppm of active ingredient; comparison with WO-2012/052490.
With `CCC1(c2ccccc2CN(C(=O)c2cn(C)nc2C(F)F)C2CC2)CC1` [I.067], the protection result is given as “at least 98%”.
Regarding `Cn1nc(C(F)F)c(C(=O)NCc2ccccc2C2CC2)c1Cl` [66 from WO-2012/052490, 5-chloro-N-(2-cyclo-propylbenzyl)-3-(difluoromethyl)-1-methyl-1H-pyrazole-4-carboxamide], the protection result was “no protection”.
As for `Cn1nc(C(F)F)c(C(=O)NCc2ccccc2C2CC2)c1F` [65 from WO-2012/052490, N-(2-cyclopropylbenzyl)-3-(difluoromethyl)-5-fluoro-1-methyl-1H-pyrazole-4-carboxamide], the protection entry was “no protection”.

Source of the values: US10071967B2, “N-cycloalkyl-N-{[2-(1-substitutedcycloalkyl)phenyl]methylene}-(thio)carboxamide derivatives” (BAYER CROPSCIENCE AKTIENGESELLSCHAFT, priority 2013, dated 2018).
